Results published in patent publication US5126258A (priority 1988, dated 1992).

How the values were obtained:
17G8 = assay: Hydrolysis of reactant ligands by receptor 17G8; assay type: biochemical, mouse
Description: (§1) ^1 Preliminary initial hydrolyses shown as the percentage of admixed
(§2) reactant ligand consumed for catalyzed and spontaneous hydrolyses. "--" =
(§3) No hydrolysis observed. "NT" = Not tried. All reactions were carried out
(§4) at pH 8.0 in a 50 mM phosphate buffer unless otherwise noted. Hydrolytic
(§5) percentages were determined by HPLC using a Hitachi model 655A12 liquid
(§6) chromatograph with a C18 Vydac 201TP54 column, except as noted below.
(§7) Mixtures of acetonitrile a nd water containing 0.1 percent trichloroaceti
(§8) acid [28:72-50:50 (v/v)] were used as elutant. Hydrolyses of Compounds 5
(§9) and 20 were assayed using fluorescence data.
(§10) ^2 Concentrations of receptor molecules (Rec.) and reactant ligands
(§11) (Lig.) in micromolar units, presuming a molecular weight of 150,000
(§12) daltons for each receptor molecule.
(§13) ^3 Reactant ligand (Lig.) used as substrate.
(§14) ^4 Time in hours that the reaction was permitted to take place.
(§15) ^5 Spontaneous hydrolytic percentages for the time period indicated.
(§16) ^6 Reaction carried out at pH 7.2 in a 50 mM phosphate buffer.

21G2 = assay: Hydrolysis of reactant ligands by receptor 21G2; assay type: biochemical, mouse; details: for hydrolysis by 21G2: pH 8.0, receptor/ligand uM, time h: 17 1/10, 2, 18 2/10, 24, 20 2/10, 0.33, 5 1/5, 0.33, 22 5/10, 3.5, preliminary
Description: as §1, §2, §3, §4, §5, §6, §7, §8, §9, §10, §11, §12, §13, §14, §15, §16

[1] = system: eight monoclonal receptors 21G2, 7E5, 37G2, 13E10, 12C9, 44A2, 17G8 and 22F5; assay: Catalyzed hydrolysis of reactant ligands by the eight QPN1 monoclonal receptors, summary; assay type: biochemical, mouse; details: pH 8.0
Description: Mice were hyperimmunized with the Compound 13-KLH conjugate over a three to four week time period. Sera were assayed in an ELISA using a Compound 13-BSA conjugate bound to microtiter plate wells as the solid-phase antigen. Cloned hybridomas were also screened using that ELISA assay.
Each of those catalyses could be inhibited by an appropriate analog-ligand. Thus, a relatively high percentage of induced monoclonal receptors was capable of catalyzing an esterolytic reaction. The reason for this relatively high percentage of useful receptors being induced is unknown, but could be due to the presence of phosphonamidate group nitrogen atom, as compared to a phosphonate oxygen atom, or to the quinoline nucleus of the analog-ligand. Those eight catalytic monoclonal receptors and the hybridomas that secrete them are identified by the laboratory designations "QPN1 7E5", "QPN1 12C9", "QPN1 13E10", "QPN1 17G8", "QPN1 21G2", "QPN1 22F5", "QPN1 37G2" and QPN1 44A2. The prefix "QPNI" is sometimes omitted herein when discussing these hybridomas and receptors.
Amide cleavage for Compounds 14 and 15 was assayed by analyzing for the production of free aminoquinaldine or aminonaphthalene by measuring the increase in the azo dye that results from derivatizing the free aminoquinaldine or aminonapthalene with a diazotization reagent.
Catalysis reactions were conducted by preparing a reaction admixture of 100 microliters (ul) total volume containing 5 micromolar (uM) monoclonal antibody, 50-75 uM amide reactant ligand substrate and a buffer described hereinafter. The buffer included in the above admixture varied depending upon the pH utilized as follows: pH 5, 10 […] sodium acetate, 10 mM sodium chloride; pH 7.2, 10 mM sodium phosphate, 0.15 molar (M) sodium chloride; pH 8.0; 50 mM sodium phosphate. The amide-containing substrates screened in this assay were added to the above admixture in 1 ul of a 100-fold concentrated stock solution of dimethyl formamide (DMF). Monoclonal antibody was added to the above admixture from a concentrated stock solution. The resulting admixture was placed into the well of a 96 well flat bottom microtiter plate (Costar, Cambridge, Mass.) and maintained in a moist vapor environment chamber at 23 degrees C. The production of aminoquinaldine or aminonaphthalene was then assayed as described below after 2,3,5, or 6 days.
The aminoquinaldine or aminonapthalene product produced by the catalyzed reaction was measured by first admixing 20 ul of 5M HCl, 80 ul acetone and 10 ul 0.5% (w/v) sodium nitrite to the reaction admixture to form a second admixture and maintaining that second admixture for 3 minutes at room temperature. Thereafter, 10 ul 2.5% (w/v) ammonium sulfamate was added to form a third admixture that was maintained for 2 minutes at room temperature. A still further 10 ul of 0.5% (w/v) N-(1-napthyl)ethylenediamine dihydrochloride was added to form a fourth admixture that was then maintained for 15 minutes at room temperature. Thereafter the resulting azo dye present in the fourth admixture was measured by absorbance spectroscopy at 540 nanometers (nm) for aminoquinaldine using a Model EL 309 Automated Microplate Reader (Bio-Tek Instruments, Winooski, Vt.).

44A2 = assay: Hydrolysis of reactant ligands by receptor 44A2; assay type: biochemical, mouse; details: for hydrolysis by 44A2: pH 8.0, receptor/ligand uM, time h: 17 1/10, 2, 18 2/10, 24, 20 2/10, 0.33, 5 1/5, 0.33, 22 5/10, 3.5, preliminary
Description: as §1, §2, §3, §4, §5, §6, §7, §8, §9, §10, §11, §12, §13, §14, §15, §16

[2] = Spontaneous (uncatalyzed, background) hydrolysis; assay type: physicochemical; details: for Spon. (spontaneous hydrolysis): pH 8.0, 50 mM phosphate, time (h): 17 2, 18 24, 20 0.33, 5 0.33, 22 3.5
Procedure, shortened: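 Background (uncatalyzed) hydrolysis of ester substrates measured in 50 mM phosphate buffer, pH 8.0, without antibody, as percentage of reactant consumed over the stated period. Quantified by C18 HPLC (acetonitrile/water with 0.1% trichloroacetic acid); Compounds 5 and 20 followed by fluorescence (ex 355 nm, em 455 nm).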

1209 = assay: Hydrolysis of reactant ligands by receptor 12C9 (column head prints 1209); assay type: biochemical, mouse; details: for hydrolysis by 1209: pH 8.0, receptor/ligand uM, time h: 17 1/10, 2, 18 2/10, 24, 20 2/10, 0.33, 5 1/5, 0.33, 22 5/10, 3.5, preliminary
Description: as §1, §2, §3, §4, §5, §6, §7, §8, §9, §10, §11, §12, §13, §14, §15, §16

7E5 = assay: Hydrolysis of reactant ligands by receptor 7E5; assay type: biochemical, mouse; details: for hydrolysis by 7E5: pH 8.0, receptor/ligand uM, time h: 17 1/10, 2, 18 2/10, 24, 20 2/10, 0.33, 5 1/5, 0.33, 22 5/10, 3.5, preliminary
Description: as §1, §2, §3, §4, §5, §6, §7, §8, §9, §10, §11, §12, §13, §14, §15, §16

37G2 = assay: Hydrolysis of reactant ligands by receptor 37G2; assay type: biochemical, mouse; details: for hydrolysis by 37G2: pH 8.0, receptor/ligand uM, time h: 17 1/10, 2, 18 2/10, 24, 20 2/10, 0.33, 5 1/5, 0.33, 22 5/10, 3.5, preliminary
Description: as §1, §2, §3, §4, §5, §6, §7, §8, §9, §10, §11, §12, §13, §14, §15, §16

[3] = pH 7.2, 1 uM receptor, 10 uM ligand, 2 h

Structure (SMILES)	hydrolysis by 17G8 (17G8; pH 8.0, receptor/ligand uM, time h: 18 2/10, 24, 20 2/10, 0.33, 5 1/5, 0.33, 22 5/10, 3.5, preliminary)	hydrolysis by 21G2 (21G2)	receptors (of eight) that catalyzed hydrolysis of the compound [1]	hydrolysis by 44A2 (44A2)	spontaneous rate of hydrolysis ([2]; above pH 8.0)	Spon. (spontaneous hydrolysis) [2]	hydrolysis by 1209 1209	hydrolysis by 7E5 (7E5)	hydrolysis by 37G2 (37G2)	hydrolysis by 17G8, pH 7.2 (17G8; [3])	hydrolysis by 21G2, pH 7.2 (21G2; [3])	hydrolysis by 44A2, pH 7.2 (44A2; [3])	Spon. (spontaneous hydrolysis), pH 7.2 ([2]; pH 7.2, 50 mM phosphate, 2 h)	hydrolysis by 1209, pH 7.2 1209; [3]	hydrolysis by 7E5, pH 7.2 (7E5; [3])	hydrolysis by 37G2, pH 7.2 (37G2; [3])
O=C(Cc1ccc(NC(=O)C(F)(F)F)cc1)Oc1ccc2ccc(=O)oc2c1 [Compound 5]	16 percentage of reactant ligand	43 percentage of reactant ligand	all of the receptors catalyzed hydrolysis	47 percentage of reactant ligand	rapid	5 percentage of reactant ligand	11 percentage of reactant ligand	8 percentage of reactant ligand	12 percentage of reactant ligand	–	–	–	–	–	–	–
CC(=O)Nc1ccc(CC(=O)Oc2cccc3ccccc23)cc1 [Compound 17]	–	10 percentage of reactant ligand	all of the receptors catalyzed hydrolysis	62 percentage of reactant ligand	–	7 percentage of reactant ligand	55 percentage of reactant ligand	30 percentage of reactant ligand	60 percentage of reactant ligand	15 percentage of reactant ligand	10 percentage of reactant ligand	19 percentage of reactant ligand	4 percentage of reactant ligand	35 percentage of reactant ligand	35 percentage of reactant ligand	39 percentage of reactant ligand
